Source: patent US20220144799A1, “PESTICIDALLY ACTIVE HETEROCYCLIC DERIVATIVES WITH SULFUR CONTAINING SUBSTITUENTS” (SYNGENTA CROP PROTECTION AG, priority 2019, published 2022)

Key:
Assay type in all cases: in vivo
[1] = test system: Bemisia tabaci (Cotton White Fly); assay: Activity against Bemisia tabaci (cotton white fly), sprayed cotton leaf discs; details: foliar, 144 h, application rate of 200 ppm, adult white flies, 6 days after incubation
Protocol: Example B1: Activity Against Bemisia tabaci (Cotton White Fly)
Cotton leaf discs were placed on agar in 24-well microtiter plates and sprayed with aqueous test solutions prepared from 10′000 ppm DMSO stock solutions. After drying the leaf discs were infested with adult white flies. The samples were checked for mortality 6 days after incubation.

[2] = test system: Diabrotica Balteata (Corn Root Worm); assay: Activity against Diabrotica balteata (corn root worm), sprayed maize sprouts; details: 96 h, application rate of 200 ppm, L2 larvae, 4 days after infestation, read-out: effect in at least one of the two categories (mortality or growth inhibition)
Protocol: Example B2: Activity Against Diabrotica Balteata (Corn Root Worm)
Maize sprouts placed onto an agar layer in 24-well microtiter plates were treated with aqueous test solutions prepared from 10′000 ppm DMSO stock solutions by spraying. After drying, the plates were infested with L2 larvae (6 to 10 per well). The samples were assessed for mortality and growth inhibition in comparison to untreated samples 4 days after infestation.
(§1) The following compounds gave an effect of at least 80% in at least one of the two categories (mortality or growth inhibition) at an application rate of 200 ppm: […]

[3] = test system: Euschistus heros (Neotropical Brown Stink Bug); assay: Activity against Euschistus heros (neotropical brown stink bug), sprayed soybean leaves; details: 120 h, application rate of 200 ppm, N2 nymphs, 5 days after infestation, read-out: effect in at least one of the two categories (mortality or growth inhibition)
Protocol: Example B3: Activity Against Euschistus heros (Neotropical Brown Stink Bug)
Soybean leaves on agar in 24-well microtiter plates were sprayed with aqueous test solutions prepared from 10′000 ppm DMSO stock solutions. After drying the leaves were infested with N2 nymphs. The samples were assessed for mortality and growth inhibition in comparison to untreated samples 5 days after infestation.
as §1

[4] = test system: Plutella xylostella (Diamond Back Moth); assay: Activity against Plutella xylostella (diamond back moth), treated artificial diet; details: 192 h, application rate of 200 ppm, Plutella eggs, 8 days after infestation, read-out: effect in at least one of the two categories (mortality or growth inhibition)
Protocol: Example B4: Activity Against Plutella xylostella (Diamond Back Moth)
24-well microtiter plates with artificial diet were treated with aqueous test solutions prepared from 10′000 ppm DMSO stock solutions by pipetting. After drying, Plutella eggs were pipetted through a plastic stencil onto a gel blotting paper and the plate was closed with it. The samples were assessed for mortality and growth inhibition in comparison to untreated samples 8 days after infestation.
as §1

[5] = test system: Myzus persicae (Green Peach Aphid); assay: Activity against Myzus persicae (green peach aphid), feeding/contact activity, sunflower leaf discs; details: foliar, 144 h, application rate of 200 ppm, aphid population of mixed ages, 6 days after infestation
Protocol: Example B5: Activity Against Myzus persicae (Green Peach Aphid) Feeding/Contact Activity
Sunflower leaf discs were placed onto agar in a 24-well microtiter plate and sprayed with aqueous test solutions prepared from 10′000 ppm DMSO stock solutions. After drying, the leaf discs were infested with an aphid population of mixed ages. The samples were assessed for mortality 6 days after infestation.

[6] = test system: Myzus persicae (Green Peach Aphid); assay: Activity against Myzus persicae (green peach aphid), systemic activity, pea seedling roots in test solution; details: 144 h, test rate of 24 ppm, aphid population of mixed ages, 6 days after placing seedlings into test solutions
Protocol: Example B6: Activity Against Myzus persicae (Green Peach Aphid) Systemic Activity
Roots of pea seedlings infested with an aphid population of mixed ages were placed directly into aqueous test solutions prepared from 10′000 DMSO stock solutions. The samples were assessed for mortality 6 days after placing seedlings into test solutions.

[7] = test system: Spodoptera littoralis (Egyptian Cotton Leaf Worm); assay: Activity against Spodoptera littoralis (Egyptian cotton leaf worm), sprayed cotton leaf discs; details: foliar, 72 h, application rate of 200 ppm, L1 larvae, 3 days after infestation
Protocol: Example B7: Activity Against Spodoptera littoralis (Egyptian Cotton Leaf Worm)
Cotton leaf discs were placed onto agar in 24-well microtiter plates and sprayed with aqueous test solutions prepared from 10′000 ppm DMSO stock solutions. After drying the leaf discs were infested with five L1 larvae. The samples were assessed for mortality, anti-feeding effect, and growth inhibition in comparison to untreated samples 3 days after infestation. Control of Spodoptera littoralis by a test sample is given when at least one of the categories mortality, anti-feedant effect, and growth inhibition is higher than the untreated sample.

CCSc1cccnc1-c1ncc(OCC(F)(F)C(F)(F)F)c(=O)n1C [Compound P1, 2-(3-ethylsulfanyl-2-pyridyl)-3-methyl-5-(2,2,3,3,3-pentafluoro-propoxy)pyrimidin-4-one]
≥ 80%: mortality at 200 ppm [1] | percent effect (mortality or growth inhibition) at 200 ppm [2] | percent effect (mortality or growth inhibition) at 200 ppm [3] | percent effect (mortality or growth inhibition) at 200 ppm [4] | mortality at 200 ppm [5] | mortality at 24 ppm [6]

CCS(=O)(=O)c1cccnc1-c1ncc(OCC(F)(F)C(F)(F)F)c(=O)n1C [Compound P2, 2-(3-ethylsulfonyl-2-pyridyl)-3-methyl-5-(2,2,3,3,3-pentafluoro-propoxy)pyrimidin-4-one]
≥ 80%: mortality at 200 ppm [1] | percent effect (mortality or growth inhibition) at 200 ppm [2] | percent effect (mortality or growth inhibition) at 200 ppm [3] | percent effect (mortality or growth inhibition) at 200 ppm [4] | mortality at 200 ppm [5] | mortality at 24 ppm [6] | percent control (mortality, anti-feedant effect or growth inhibition) at 200 ppm [7]

CCS(=O)(=O)c1cc(N(C)C(C)=O)cnc1-c1ncc(OCC(F)(F)C(F)(F)F)c(=O)n1C [Compound P5, N-[5-ethylsulfonyl-6-[1-methyl-6-oxo-5-(2,2,3,3,3-pentafluoropropoxy)-pyrimidin-2-yl]-3-pyridyl]-N-methyl-acetamide]
≥ 80%: percent effect (mortality or growth inhibition) at 200 ppm [2] | percent effect (mortality or growth inhibition) at 200 ppm [3] | percent effect (mortality or growth inhibition) at 200 ppm [4] | mortality at 200 ppm [5] | mortality at 24 ppm [6]

CCS(=O)(=O)c1ccc(N(C)C(C)=O)nc1-c1ncc(OCC(F)(F)C(F)(F)F)c(=O)n1C [Compound P9, N-[5-ethylsulfonyl-6-[1-methyl-6-oxo-5-(2,2,3,3,3-pentafluoropropoxy)-pyrimidin-2-yl]-2-pyridyl]-N-methyl-acetamide]
≥ 80%: mortality at 200 ppm [1] | percent effect (mortality or growth inhibition) at 200 ppm [2] | percent effect (mortality or growth inhibition) at 200 ppm [4] | mortality at 200 ppm [5] | mortality at 24 ppm [6]

CCS(=O)(=O)c1cc(C2(C#N)CC2)cnc1-c1ncc(OCC(F)(F)C(F)(F)F)c(=O)n1C [Compound P11, 1-[5-ethylsulfonyl-6-[1-methyl-6-oxo-5-(2,2,3,3,3-pentafluoropropoxy)-pyrimidin-2-yl]-3-pyridyl]cyclopropanecarbonitrile]
≥ 80%: mortality at 200 ppm [1] | percent effect (mortality or growth inhibition) at 200 ppm [2] | percent effect (mortality or growth inhibition) at 200 ppm [3] | percent effect (mortality or growth inhibition) at 200 ppm [4] | mortality at 200 ppm [5] | mortality at 24 ppm [6] | percent control (mortality, anti-feedant effect or growth inhibition) at 200 ppm [7]

CCS(=O)(=O)c1cc(C(C)(C)C#N)cnc1-c1ncc(OCC(F)(F)C(F)(F)F)c(=O)n1C [Compound P13, 2-[5-ethylsulfonyl-6-[1-methyl-6-oxo-5-(2,2,3,3,3-pentafluoropropoxy)pyrimidin-2-yl]-3-pyridyl]-2-methyl-propanenitrile]
≥ 80%: mortality at 200 ppm [1] | percent effect (mortality or growth inhibition) at 200 ppm [2] | percent effect (mortality or growth inhibition) at 200 ppm [3] | percent effect (mortality or growth inhibition) at 200 ppm [4] | mortality at 24 ppm [6] | percent control (mortality, anti-feedant effect or growth inhibition) at 200 ppm [7]

CCS(=O)(=O)c1ccc(-n2cncn2)nc1-c1ncc(OCC(F)(F)C(F)(F)F)c(=O)n1C [Compound P14, 2-[3-ethylsulfonyl-6-(1,2,4-triazol-1-yl)-2-pyridyl]-3-methyl-5-(2,2,3,3,3-pentafluoropropoxy) pyrimidin-4-one]
≥ 80%: mortality at 200 ppm [1] | percent effect (mortality or growth inhibition) at 200 ppm [2] | percent effect (mortality or growth inhibition) at 200 ppm [3] | percent effect (mortality or growth inhibition) at 200 ppm [4] | mortality at 200 ppm [5] | mortality at 24 ppm [6] | percent control (mortality, anti-feedant effect or growth inhibition) at 200 ppm [7]

CCS(=O)(=O)c1ccc(N(C)C(=O)NC)nc1-c1ncc(OCC(F)(F)C(F)(F)F)c(=O)n1C [Compound P15, 1-[5-ethylsulfonyl-6-[1-methyl-6-oxo-5-(2,2,3,3,3-pentafluoropropoxy)pyrimidin-2-yl]-2-pyridyl]-1,3-dimethyl-urea]
≥ 80%: percent effect (mortality or growth inhibition) at 200 ppm [3] | mortality at 200 ppm [5] | mortality at 24 ppm [6]

CCS(=O)(=O)c1ccc(N(C)C(=O)C2CC2)nc1-c1ncc(OCC(F)(F)C(F)(F)F)c(=O)n1C [Compound P16, N-[5-ethylsulfonyl-6-[1-methyl-6-oxo-5-(2,2,3,3,3-pentafluoropropoxy)pyrimidin-2-yl]-2-pyridyl]-N-methyl-cyclo-propanecarboxamide]
≥ 80%: mortality at 200 ppm [1] | percent effect (mortality or growth inhibition) at 200 ppm [2] | percent effect (mortality or growth inhibition) at 200 ppm [3] | percent effect (mortality or growth inhibition) at 200 ppm [4] | mortality at 200 ppm [5] | mortality at 24 ppm [6] | percent control (mortality, anti-feedant effect or growth inhibition) at 200 ppm [7]

CCS(=O)(=O)c1cc(C2CC2)cnc1-c1ncc(OCC(F)(F)C(F)(F)F)c(=O)n1C [Compound P18, 2-(5-cyclopropyl-3-ethylsulfonyl-2-pyridyl)-3-methyl-5-(2,2,3,3,3-pentafluoropropoxy) pyrimidin-4-one]
≥ 80%: percent effect (mortality or growth inhibition) at 200 ppm [2] | percent effect (mortality or growth inhibition) at 200 ppm [3] | percent effect (mortality or growth inhibition) at 200 ppm [4] | mortality at 200 ppm [5] | mortality at 24 ppm [6] | percent control (mortality, anti-feedant effect or growth inhibition) at 200 ppm [7]

CCS(=O)(=O)c1cc(Oc2ccccn2)cnc1-c1ncc(OCC(F)(F)C(F)(F)F)c(=O)n1C [Compound P20, 2-[3-ethylsulfonyl-5-(2-pyridyloxy)-2-pyridyl]-3-methyl-5-(2,2,3,3,3-pentafluoropropoxy) pyrimidin-4-one]
≥ 80%: percent effect (mortality or growth inhibition) at 200 ppm [2] | percent effect (mortality or growth inhibition) at 200 ppm [3] | percent effect (mortality or growth inhibition) at 200 ppm [4] | mortality at 200 ppm [5] | mortality at 24 ppm [6] | percent control (mortality, anti-feedant effect or growth inhibition) at 200 ppm [7]
